Active and inactive are the calls of the source. The calls are words filed in the database; no cut-off is given here.
Legend:
[1] = system: Mus musculus; assay: Anti-colitis activity against DSS-induced C57BL/6 mouse model of subchronic relapsing colitis assessed as reduction in spleen swelling at 0.3 mg/kg, po administered once daily for 14 days starting from day 5 post DSS-challenge; type: functional, organism-based
[2] = Toxicity in DSS-induced C57BL/6 mouse model of chronic relapsing colitis assessed as induction of abnormalities in heart at 0.15 mg/kg, po administered once daily for 30 days starting from day 13 post DSS-challenge cotreated with 20 mg/kg berberine by hematoxylin and eosin staining based light microscopic analysis; type: organism-based; conditions: in vivo, 720 h
[3] = Toxicity in DSS-induced C57BL/6 mouse model of chronic relapsing colitis assessed as induction of abnormalities in heart at 0.3 mg/kg, po administered once daily for 30 days starting from day 13 post DSS-challenge by hematoxylin and eosin staining based light microscopic analysis; type: organism-based; conditions: in vivo, 720 h
[4] = system: Mus musculus; assay: Anti-colitis activity against DSS-induced C57BL/6 mouse model of chronic relapsing colitis assessed as reduction in DSS-induced multiple erosive lesions in colon at 0.3 mg/kg, po administered once daily for 30 days starting from day 13 post DSS-challenge; type: functional, organism-based
[5] = target: Signal transducer and activator of transcription 3 (Homo sapiens) (UniProt P40763); assay: Inhibition of STAT3 activation in human THP1 cells assessed as reduction in LPS-induced phosphorylated STAT3 expression at 1 uM incubated for 1 hr followed by LPS challenge and measured after 4 to 6 hrs by Western blot analysis; type: cell-based; conditions: THP-1
Chain of Signal transducer and activator of transcription 3 (Homo sapiens) (P40763 whole entry): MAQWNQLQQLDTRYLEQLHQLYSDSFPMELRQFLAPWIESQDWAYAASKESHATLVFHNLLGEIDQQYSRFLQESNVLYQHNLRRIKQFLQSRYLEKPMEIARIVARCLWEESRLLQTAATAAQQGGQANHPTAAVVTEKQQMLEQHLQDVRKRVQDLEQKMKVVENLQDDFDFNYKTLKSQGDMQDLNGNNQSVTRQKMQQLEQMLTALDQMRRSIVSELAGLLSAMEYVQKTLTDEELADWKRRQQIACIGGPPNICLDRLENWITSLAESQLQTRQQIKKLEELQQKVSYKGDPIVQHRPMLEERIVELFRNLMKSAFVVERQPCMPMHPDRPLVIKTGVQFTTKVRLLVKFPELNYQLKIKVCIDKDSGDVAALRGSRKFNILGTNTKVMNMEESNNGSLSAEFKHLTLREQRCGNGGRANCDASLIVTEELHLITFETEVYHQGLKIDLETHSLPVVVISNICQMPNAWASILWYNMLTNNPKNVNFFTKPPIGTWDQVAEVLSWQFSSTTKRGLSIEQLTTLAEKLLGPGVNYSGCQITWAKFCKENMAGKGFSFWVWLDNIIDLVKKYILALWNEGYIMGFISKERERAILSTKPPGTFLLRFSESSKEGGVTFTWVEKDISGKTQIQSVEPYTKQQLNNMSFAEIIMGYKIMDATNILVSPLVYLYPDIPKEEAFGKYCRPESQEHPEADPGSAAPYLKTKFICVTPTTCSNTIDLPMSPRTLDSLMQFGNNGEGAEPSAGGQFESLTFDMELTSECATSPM

[6] = Toxicity in DSS-induced C57BL/6 mouse model of chronic relapsing colitis assessed as induction of abnormalities in liver at 0.3 mg/kg, po administered once daily for 30 days starting from day 13 post DSS-challenge by hematoxylin and eosin staining based light microscopic analysis; type: organism-based; conditions: in vivo, 720 h
[7] = system: Mus musculus; assay: Anti-colitis activity against DSS-induced C57BL/6 mouse model of subchronic relapsing colitis assessed as reduction in colon swelling at 0.3 mg/kg, po administered once daily for 14 days starting from day 5 post DSS-challenge; type: functional, organism-based
[8] = system: Mus musculus; assay: Anti-colitis activity against DSS-induced C57BL/6 mouse model of chronic relapsing colitis assessed as reduction in DSS-induced multiple erosive lesions in colon at 0.15 mg/kg, po administered once daily for 30 days starting from day 13 post DSS-challenge cotreated with 20 mg/kg berberine by hematoxylin and eosin staining based light microscopic analysis; type: functional, organism-based
[9] = system: Mus musculus; assay: Anti-colitis activity against DSS-induced C57BL/6 mouse model of subchronic relapsing colitis assessed as reduction in stool consistency score at 0.15 mg/kg, po administered once daily for 14 days starting from day 5 post DSS-challenge cotreated with 20 mg/kg berberine and measured after day 12 to day 18; type: functional, organism-based
[10] = system: Mus musculus; assay: Anti-colitis activity against DSS-induced C57BL/6 mouse model of subchronic relapsing colitis assessed as effect on body weight at 0.3 mg/kg, po administered once daily for 14 days starting from day 5 post DSS-challenge and measured after day 12 to day 18; type: functional, organism-based
[11] = Toxicity in DSS-induced C57BL/6 mouse model of chronic relapsing colitis assessed as induction of abnormalities in brain at 0.3 mg/kg, po administered once daily for 30 days starting from day 13 post DSS-challenge by hematoxylin and eosin staining based light microscopic analysis; type: organism-based; conditions: in vivo, 720 h
[12] = system: Mus musculus; assay: Antiinflammatory activity against DSS-induced C57BL/6 mouse model of subchronic relapsing colitis assessed as reduction in IL17 mRNA level at 0.3 mg/kg, po administered once daily for 14 days starting from day 5 post DSS-challenge by RT-qPCR analysis; type: functional, organism-based
[13] = system: Mus musculus; assay: Anti-colitis activity against DSS-induced C57BL/6 mouse model of chronic relapsing colitis assessed as reduction in DSS-induced loss of colon crypt and columnar epithelium at 0.15 mg/kg, po administered once daily for 30 days starting from day 13 post DSS-challenge cotreated with 20 mg/kg berberine by hematoxylin and eosin staining based light microscopic analysis; type: functional, organism-based
[14] = system: Mus musculus; assay: Antiinflammatory activity against DSS-induced C57BL/6 mouse model of subchronic relapsing colitis assessed as reduction in IL6 mRNA level at 0.15 mg/kg, po administered once daily for 14 days starting from day 5 post DSS-challenge cotreated with 20 mg/kg berberine by RT-qPCR analysis; type: functional, organism-based
[15] = system: Mus musculus; assay: Anti-colitis activity against DSS-induced C57BL/6 mouse model of chronic relapsing colitis assessed as reduction in disease activity index at 0.3 mg/kg, po administered once daily for 30 days starting from day 13 post DSS-challenge and measured on day 43; type: functional, organism-based
[16] = system: Mus musculus; assay: Anti-colitis activity against DSS-induced C57BL/6 mouse model of chronic relapsing colitis assessed as reduction in DSS-induced mononuclear cell infiltration in spleen at 0.15 mg/kg, po administered once daily for 30 days starting from day 13 post DSS-challenge cotreated with 20 mg/kg berberine by hematoxylin and eosin staining based light microscopic analysis; type: functional, organism-based
[17] = Toxicity in DSS-induced C57BL/6 mouse model of chronic relapsing colitis assessed as induction of abnormalities in kidney at 0.3 mg/kg, po administered once daily for 30 days starting from day 13 post DSS-challenge by hematoxylin and eosin staining based light microscopic analysis; type: organism-based; conditions: in vivo, 720 h
[18] = system: Mus musculus; assay: Anti-colitis activity against DSS-induced C57BL/6 mouse model of subchronic relapsing colitis assessed as reversal of DSS-induced colon shortening at 0.15 mg/kg, po administered once daily for 30 days starting from day 13 post DSS-challenge cotreated with 20 mg/kg berberine; type: functional, organism-based
[19] = system: THP-1; assay: Antiinflammatory activity in human THP1 cells assessed as reduction in LPS-induced TNFalpha mRNA level at 0.5 uM cotreated with 0.5 uM berberine incubated for 1 hr followed by LPS challenge and measured after 4 to 6 hrs by q-PCR method; type: functional, cell-based
[20] = system: Mus musculus; assay: Anti-colitis activity against DSS-induced C57BL/6 mouse model of subchronic relapsing colitis assessed as reduction in disease activity index at 0.3 mg/kg, po administered once daily for 14 days starting from day 5 post DSS challenge and measured on day 19; type: functional, organism-based
[21] = system: Mus musculus; assay: Anti-colitis activity against DSS-induced C57BL/6 mouse model of chronic relapsing colitis assessed as reduction in disease activity index at 0.15 mg/kg, po administered once daily for 30 days starting from day 13 post DSS-challenge cotreated with 20 mg/kg berberine and measured on day 24; type: functional, organism-based
[22] = system: Mus musculus; assay: Antiinflammatory activity against DSS-induced C57BL/6 mouse model of subchronic relapsing colitis assessed as reduction in S1PR1 mRNA level at 0.3 mg/kg, po administered once daily for 14 days starting from day 5 post DSS-challenge by RT-qPCR analysis; type: functional, organism-based
[23] = Toxicity in DSS-induced C57BL/6 mouse model of chronic relapsing colitis assessed as induction of abnormalities in lung at 0.3 mg/kg, po administered once daily for 30 days starting from day 13 post DSS-challenge by hematoxylin and eosin staining based light microscopic analysis; type: organism-based; conditions: in vivo, 720 h
[24] = target: Signal transducer and activator of transcription 3 (Homo sapiens) (UniProt P40763); assay: Inhibition of STAT3 activation in human THP1 cells assessed as reduction in LPS-induced phosphorylated STAT3 expression at 0.5 uM cotreated with 0.5 uM berberine incubated for 1 hr followed by LPS challenge and measured after 4 to 6 hrs by Western blot analysis; type: cell-based; conditions: THP-1
[25] = system: Mus musculus; assay: Antiinflammatory activity against DSS-induced C57BL/6 mouse model of subchronic relapsing colitis assessed as reduction in IL6 mRNA level at 0.3 mg/kg, po administered once daily for 14 days starting from day 5 post DSS-challenge by RT-qPCR analysis; type: functional, organism-based

In the case of `CCCCCCCCc1ccc(CCC(N)(CO)CO)cc1.Cl` [FINGOLIMOD HYDROCHLORIDE], the Activity [1] is reported as “inactive”, the Activity [2] is reported as “Non-Toxic” and the Activity [3] is reported as “Non-Toxic”. The Activity [4] was “Active”, the inhibition [5] was “Active” and the Activity [6] was “Non-Toxic”. For the same molecule, the Activity [7] was “inactive”, the Activity [8] was “Active” and the Activity [9] was “Active”. For the same molecule, the Activity [10] was “inactive”, the Activity [11] was “Non-Toxic” and the Activity [12] was “Active”. For the same molecule, the Activity [13] was “Active”, the Activity [14] was “Active” and the Activity [15] was “Active”. The Activity [16] was “Active”, the Activity [17] was “Non-Toxic” and the Activity [18] was “Active”. The Activity [19] was “Active”, the Activity [20] was “Active” and the Activity [21] was “Active”. For the same molecule, the Activity [22] was “Active”, the Activity [23] was “Non-Toxic” and the inhibition [24] was “Active”. For the same molecule, the Activity [25] was “Active”.
